Reference: PubChem BioAssay AID2060484 (Molecular Pharmacology Branch, DTP, NCI, 2025)

Test system: SUM149PT spheroids with HUVEC/MSC, viability
Test: Anticancer human tumor SUM149PT cell line growth inhibition [GQUAD];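 also: spheroids exposed to drugs for seven days before readout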;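 as to viability, T/C: percent viability relative to DMSO vehicle control taken as 100%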
Conditions: for IC50: curve of first compound; for viability, T/C: stronger effect = lower value
Summary of the method: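 Multi-cell-type spheroids of tumor cells with HUVEC and mesenchymal stem cells, treated with drug combinations. Concentrations descend in half-log steps from near clinical Cmax, or from 10 microM where Cmax is unknown; viability read-out.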

[1] = second compound 0.0316 µM, first compound 0.0316 µM
[2] = second compound 0.0316 µM, first compound 0.1 µM
[3] = second compound 0.0316 µM, first compound 0.316 µM
[4] = second compound 0.0316 µM, first compound 1 µM
[5] = second compound 0.0316 µM, first compound 3.16 µM
[6] = second compound 0.0316 µM, first compound 10 µM
[7] = second compound 0.1 µM, first compound 0.0316 µM
[8] = second compound 0.1 µM, first compound 0.1 µM
[9] = second compound 0.1 µM, first compound 0.316 µM
[10] = second compound 0.1 µM, first compound 1 µM
[11] = second compound 0.1 µM, first compound 3.16 µM
[12] = second compound 0.1 µM, first compound 10 µM
[13] = second compound 0.316 µM, first compound 0.0316 µM
[14] = second compound 0.316 µM, first compound 0.1 µM
[15] = second compound 0.316 µM, first compound 0.316 µM
[16] = second compound 0.316 µM, first compound 1 µM
[17] = second compound 0.316 µM, first compound 3.16 µM
[18] = second compound 0.316 µM, first compound 10 µM
[19] = second compound 1 µM, first compound 0.0316 µM
[20] = second compound 1 µM, first compound 0.1 µM
[21] = second compound 1 µM, first compound 0.316 µM
[22] = second compound 1 µM, first compound 1 µM
[23] = second compound 1 µM, first compound 3.16 µM
[24] = second compound 1 µM, first compound 10 µM
[25] = second compound 3.16 µM, first compound 0.0316 µM
[26] = second compound 3.16 µM, first compound 0.1 µM
[27] = second compound 3.16 µM, first compound 0.316 µM
[28] = second compound 3.16 µM, first compound 1 µM
[29] = second compound 3.16 µM, first compound 3.16 µM
[30] = second compound 3.16 µM, first compound 10 µM
[31] = second compound 10 µM, first compound 0.0316 µM
[32] = second compound 10 µM, first compound 0.1 µM
[33] = second compound 10 µM, first compound 0.316 µM
[34] = second compound 10 µM, first compound 1 µM
[35] = second compound 10 µM, first compound 3.16 µM
[36] = second compound 10 µM, first compound 10 µM
[37] = second compound 0.0316 µM, first compound 0.000999 µM
[38] = second compound 0.0316 µM, first compound 0.00316 µM
[39] = second compound 0.0316 µM, first compound 0.00999 µM
[40] = second compound 0.0316 µM, first compound 0.0999 µM
[41] = second compound 0.1 µM, first compound 0.000999 µM
[42] = second compound 0.1 µM, first compound 0.00316 µM
[43] = second compound 0.1 µM, first compound 0.00999 µM
[44] = second compound 0.1 µM, first compound 0.0999 µM
[45] = second compound 0.316 µM, first compound 0.000999 µM
[46] = second compound 0.316 µM, first compound 0.00316 µM
[47] = second compound 0.316 µM, first compound 0.00999 µM
[48] = second compound 0.316 µM, first compound 0.0999 µM
[49] = second compound 1 µM, first compound 0.000999 µM
[50] = second compound 1 µM, first compound 0.00316 µM
[51] = second compound 1 µM, first compound 0.00999 µM
[52] = second compound 1 µM, first compound 0.0999 µM
[53] = second compound 3.16 µM, first compound 0.000999 µM
[54] = second compound 3.16 µM, first compound 0.00316 µM
[55] = second compound 3.16 µM, first compound 0.00999 µM
[56] = second compound 3.16 µM, first compound 0.0999 µM
[57] = second compound 10 µM, first compound 0.000999 µM
[58] = second compound 10 µM, first compound 0.00316 µM
[59] = second compound 10 µM, first compound 0.00999 µM
[60] = second compound 10 µM, first compound 0.0999 µM

C=CC(=O)N1CCN(c2nc(=O)n(-c3c(C)ccnc3C(C)C)c3nc(-c4c(O)cccc4F)c(F)cc23)C(C)C1 (stereo not drawn) + CN(C)c1ccc(Nc2c3ccc(NC(=O)CCN4CCCC4)cc3nc3cc(NC(=O)CCN4CCCC4)ccc23)cc1
IC50 (second compound 0.0316 µM): > 10000 nM
IC50 (second compound 0.1 µM): > 10000 nM
IC50 (second compound 0.316 µM): > 10000 nM
IC50 (second compound 1 µM): > 10000 nM
IC50 (second compound 3.16 µM): > 10000 nM
IC50 (second compound 10 µM): > 10000 nM
viability, T/C [1]: 106%
viability, T/C [2]: 101%
viability, T/C [3]: 105%
viability, T/C [4]: 110%
viability, T/C [5]: 122%
viability, T/C [6]: 101%
viability, T/C [7]: 99.7%
viability, T/C [8]: 102%
viability, T/C [9]: 98.2%
viability, T/C [10]: 113%
viability, T/C [11]: 115%
viability, T/C [12]: 108%
viability, T/C [13]: 96.1%
viability, T/C [14]: 93.9%
viability, T/C [15]: 110%
viability, T/C [16]: 114%
viability, T/C [17]: 111%
viability, T/C [18]: 101%
viability, T/C [19]: 96.5%
viability, T/C [20]: 86.5%
viability, T/C [21]: 95.4%
viability, T/C [22]: 103%
viability, T/C [23]: 113%
viability, T/C [24]: 96.7%
viability, T/C [25]: 88.3%
viability, T/C [26]: 89.9%
viability, T/C [27]: 103%
viability, T/C [28]: 104%
viability, T/C [29]: 106%
viability, T/C [30]: 85.4%
viability, T/C [31]: 86.8%
viability, T/C [32]: 82.9%
viability, T/C [33]: 92.6%
viability, T/C [34]: 90%
viability, T/C [35]: 100%
viability, T/C [36]: 69.2%

CC[C@@]1(O)C(=O)OCc2c1cc1n(c2=O)Cc2cc3c(CN(C)C)c(O)ccc3nc2-1 + CN(C)c1ccc(Nc2c3ccc(NC(=O)CCN4CCCC4)cc3nc3cc(NC(=O)CCN4CCCC4)ccc23)cc1
IC50 (second compound 0.0316 µM): > 316 nM
IC50 (second compound 0.1 µM): > 316 nM
IC50 (second compound 0.316 µM): > 316 nM
IC50 (second compound 1 µM): 206 nM
IC50 (second compound 3.16 µM): 84 nM
IC50 (second compound 10 µM): 98.1 nM
viability, T/C [37]: 110%
viability, T/C [38]: 87.6%
viability, T/C [39]: 109%
viability, T/C [1]: 82.2%
viability, T/C [40]: 55.9%
viability, T/C [3]: 57%
viability, T/C [41]: 102%
viability, T/C [42]: 102%
viability, T/C [43]: 103%
viability, T/C [7]: 88.4%
viability, T/C [44]: 56%
viability, T/C [9]: 57.2%
viability, T/C [45]: 95.6%
viability, T/C [46]: 92.1%
viability, T/C [47]: 90%
viability, T/C [13]: 83.6%
viability, T/C [48]: 51.6%
viability, T/C [15]: 52.9%
viability, T/C [49]: 87.8%
viability, T/C [50]: 88.2%
viability, T/C [51]: 80.2%
viability, T/C [19]: 78.3%
viability, T/C [52]: 54%
viability, T/C [21]: 47.6%
viability, T/C [53]: 94.7%
viability, T/C [54]: 84.4%
viability, T/C [55]: 102%
viability, T/C [25]: 69.7%
viability, T/C [56]: 47.9%
viability, T/C [27]: 45.1%
viability, T/C [57]: 92.5%
viability, T/C [58]: 90%
viability, T/C [59]: 86.4%
viability, T/C [31]: 74.2%
viability, T/C [60]: 48.7%
viability, T/C [33]: 44.9%

COc1cccc2c1C(=O)c1c(O)c3c(c(O)c1C2=O)CC(O)(C(=O)CO)CC3OC1CC(N)C(O)C(C)O1 (stereo not drawn) + CN(C)c1ccc(Nc2c3ccc(NC(=O)CCN4CCCC4)cc3nc3cc(NC(=O)CCN4CCCC4)ccc23)cc1
IC50 (second compound 0.0316 µM): 279 nM
IC50 (second compound 0.1 µM): 260 nM
IC50 (second compound 0.316 µM): 273 nM
IC50 (second compound 1 µM): 159 nM
IC50 (second compound 3.16 µM): 240 nM
IC50 (second compound 10 µM): 217 nM
viability, T/C [1]: 102%
viability, T/C [2]: 67.8%
viability, T/C [3]: 52.5%
viability, T/C [4]: 27.3%
viability, T/C [5]: 5.04%
viability, T/C [6]: 1.9%
viability, T/C [7]: 97.9%
viability, T/C [8]: 67.9%
viability, T/C [9]: 48.2%
viability, T/C [10]: 27.4%
viability, T/C [11]: 2.62%
viability, T/C [12]: 0.68%
viability, T/C [13]: 79.5%
viability, T/C [14]: 67.5%
viability, T/C [15]: 46.9%
viability, T/C [16]: 25.2%
viability, T/C [17]: 2.96%
viability, T/C [18]: 1.86%
viability, T/C [19]: 73.5%
viability, T/C [20]: 53.2%
viability, T/C [21]: 42.5%
viability, T/C [22]: 23.4%
viability, T/C [23]: 3.28%
viability, T/C [24]: 1.27%
viability, T/C [25]: 71%
viability, T/C [26]: 58.4%
viability, T/C [27]: 48.1%
viability, T/C [28]: 24.1%
viability, T/C [29]: 4.84%
viability, T/C [30]: 2.15%
viability, T/C [31]: 78.9%
viability, T/C [32]: 59.2%
viability, T/C [33]: 45.6%
viability, T/C [34]: 28.1%
viability, T/C [35]: 4%
viability, T/C [36]: 2.22%

Cn1ncnc1[C@H]1c2n[nH]c(=O)c3cc(F)cc(c23)N[C@@H]1c1ccc(F)cc1 + CN(C)c1ccc(Nc2c3ccc(NC(=O)CCN4CCCC4)cc3nc3cc(NC(=O)CCN4CCCC4)ccc23)cc1
IC50 (second compound 0.0316 µM): > 316 nM
IC50 (second compound 0.1 µM): > 316 nM
IC50 (second compound 0.316 µM): > 316 nM
IC50 (second compound 1 µM): > 316 nM
IC50 (second compound 3.16 µM): > 316 nM
IC50 (second compound 10 µM): > 316 nM
viability, T/C [37]: 110%
viability, T/C [38]: 91.4%
viability, T/C [39]: 94.5%
viability, T/C [1]: 92.1%
viability, T/C [40]: 91.9%
viability, T/C [3]: 69.4%
viability, T/C [41]: 95%
viability, T/C [42]: 99.5%
viability, T/C [43]: 91.5%
viability, T/C [7]: 89.5%
viability, T/C [44]: 92.4%
viability, T/C [9]: 66.6%
viability, T/C [45]: 96%
viability, T/C [46]: 83.4%
viability, T/C [47]: 98.1%
viability, T/C [13]: 78.2%
viability, T/C [48]: 81.1%
viability, T/C [15]: 64.9%
viability, T/C [49]: 87.6%
viability, T/C [50]: 88.1%
viability, T/C [51]: 77%
viability, T/C [19]: 81.5%
viability, T/C [52]: 81.2%
viability, T/C [21]: 56.7%
viability, T/C [53]: 79.3%
viability, T/C [54]: 89%
viability, T/C [55]: 80.3%
viability, T/C [25]: 80.8%
viability, T/C [56]: 73.8%
viability, T/C [27]: 56%
viability, T/C [57]: 88.9%
viability, T/C [58]: 79%
viability, T/C [59]: 72.2%
viability, T/C [31]: 83.5%
viability, T/C [60]: 74.2%
viability, T/C [33]: 52.3%
